Earlier results on 15 compounds are cited in US10806744B2, “Edible composition” (Conopco, Inc., priority 2015, dated 2020).

The series addresses T1, SGLT1 (Homo sapiens, UniProt P13866).
T1 sequence (P13866 1-664): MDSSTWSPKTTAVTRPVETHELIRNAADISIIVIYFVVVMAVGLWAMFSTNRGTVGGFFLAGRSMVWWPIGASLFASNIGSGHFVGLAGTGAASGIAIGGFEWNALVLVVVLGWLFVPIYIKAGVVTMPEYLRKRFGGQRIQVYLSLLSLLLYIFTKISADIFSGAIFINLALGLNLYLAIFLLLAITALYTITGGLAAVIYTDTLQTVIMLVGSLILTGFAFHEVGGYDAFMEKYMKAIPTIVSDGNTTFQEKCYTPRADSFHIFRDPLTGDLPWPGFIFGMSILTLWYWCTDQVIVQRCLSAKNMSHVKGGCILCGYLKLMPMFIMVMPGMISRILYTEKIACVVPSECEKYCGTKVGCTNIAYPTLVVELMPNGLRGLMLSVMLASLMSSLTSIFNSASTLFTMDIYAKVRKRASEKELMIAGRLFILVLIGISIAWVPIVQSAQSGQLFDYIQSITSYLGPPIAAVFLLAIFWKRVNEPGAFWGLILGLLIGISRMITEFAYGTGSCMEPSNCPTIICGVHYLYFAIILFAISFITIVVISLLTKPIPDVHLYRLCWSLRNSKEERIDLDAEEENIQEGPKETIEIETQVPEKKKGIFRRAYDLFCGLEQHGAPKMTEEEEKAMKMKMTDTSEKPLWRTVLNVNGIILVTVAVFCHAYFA
The conditions noted are these: as disclosed in Table 1 of WO 2014/086632; cited from earlier work.
With `O=c1cc(-c2ccc(O)cc2)oc2cc(OC3O[C@H](CO)[C@@H](O)[C@H](O)[C@H]3O)cc(O)c12` (stereo partly drawn) [apigenin-7-glucoside], the SGLT1 inhibitory activity entry was “SGLT1 inhibitors”. For `OC[C@H]1O[C@@H](Oc2ccc(O)cc2)[C@H](O)[C@@H](O)[C@@H]1O` [arbutin], the SGLT1 inhibitory activity result was “lack of SGLT1 inhibitory activity”. For the compound `OC[C@H]1O[C@@H](Oc2cc3c(O)cc(O)cc3[o+]c2-c2ccc(O)c(O)c2)[C@H](O)[C@@H](O)[C@@H]1O` [cyanidin-3-glucoside], the SGLT1 inhibitory activity result is “SGLT1 inhibitors”. Regarding `C[C@@H]1O[C@@H](OC[C@H]2O[C@@H](Oc3cc4c(O)cc(O)cc4[o+]c3-c3ccc(O)c(O)c3)[C@H](O)[C@@H](O)[C@@H]2O)[C@H](O)[C@H](O)[C@H]1O` [cyanidin-3-rutinoside], the SGLT1 inhibitory activity entry is “absence of SGLT1 inhibitory activity”. For `O=c1c(-c2ccc(O)cc2)coc2cc(O[C@@H]3O[C@H](CO)[C@@H](O)[C@H](O)[C@H]3O)ccc12` [daidzein-7-glucoside], the SGLT1 inhibitory activity entry is given as “SGLT1 inhibitors”. As for `O=c1c(-c2ccc(O)cc2)coc2c([C@@H]3O[C@H](CO)[C@@H](O)[C@H](O)[C@H]3O)c(O)ccc12` [daidzein-8-C-glucoside], the SGLT1 inhibitory activity result is listed as “SGLT1 inhibitors”. As to `OC[C@H]1O[C@@H](Oc2cc3c(O)cc(O)cc3[o+]c2-c2cc(O)c(O)c(O)c2)[C@H](O)[C@@H](O)[C@@H]1O` [delphinidin-3-glucoside], the SGLT1 inhibitory activity entry is “SGLT1 inhibitors”.

Take `O=C1CC(c2ccc(O)c(O)c2)Oc2cc(O[C@@H]3O[C@H](CO)[C@@H](O)[C@H](O)[C@H]3O)cc(O)c21` (stereo partly drawn) [eriodictiol-7-glucoside]: the SGLT1 inhibitory activity entry is given as “SGLT1 inhibitors”. In the case of `O=c1c(O)c(-c2ccc(O)cc2)oc2cc(O[C@@H]3O[C@H](CO)[C@@H](O)[C@H](O)[C@H]3O)cc(O)c12` [kaempferol-7-glucoside], the SGLT1 inhibitory activity result is on record as “SGLT1 inhibitors”. For `COc1cc(-c2[o+]c3cc(O)cc(O)c3cc2O[C@@H]2O[C@H](CO)[C@H](O)[C@H](O)[C@H]2O)cc(OC)c1O` [malvidin-3-O-galactoside], the SGLT1 inhibitory activity entry was “absence of SGLT1 inhibitory activity”. In the case of `COc1cc(-c2[o+]c3cc(O)cc(O)c3cc2O[C@@H]2O[C@H](CO)[C@@H](O)[C@H](O)[C@H]2O)cc(OC)c1O` [malvidin-3-O-glucoside], the SGLT1 inhibitory activity result is listed as “SGLT1 inhibitors”. Turning to `OC[C@H]1O[C@@H](Oc2cc3c(O)cc(O)cc3[o+]c2-c2ccc(O)cc2)[C@H](O)[C@@H](O)[C@@H]1O` [pelargonidin-3-glucoside], the SGLT1 inhibitory activity entry is recorded as “SGLT1 inhibitors”.

As for `O=c1c(O[C@@H]2O[C@H](CO)[C@@H](O)[C@H](O)[C@H]2O)c(-c2ccc(O[C@@H]3O[C@H](CO)[C@@H](O)[C@H](O)[C@H]3O)c(O)c2)oc2cc(O)cc(O)c12` [quercetin-3,4′-diglucoside], the SGLT1 inhibitory activity entry is “destroys this inhibitory action”.

Take `O=c1c(O[C@@H]2O[C@H](CO)[C@@H](O)[C@H](O)[C@H]2O)c(-c2ccc(O)c(O)c2)oc2cc(O)cc(O)c12` [quercetin-3-glucoside]: the SGLT1 inhibitory activity entry is recorded as “SGLT1 inhibitors”. As for `O=c1c(O)c(-c2ccc(O[C@@H]3O[C@H](CO)[C@@H](O)[C@H](O)[C@H]3O)c(O)c2)oc2cc(O)cc(O)c12` [quercetin-4-glucoside], the SGLT1 inhibitory activity result is “SGLT1 inhibitors”.
